Source: paper PMC9412861, “Understanding the pH Dependence of Supersaturation State—A Case Study of Telmisartan” (Pharmaceutics, 2022)
Converted amounts (≈) assume the structure as drawn. Read-outs that look alike come from different tables or passages of the source.

Legend:
[1] = UV/pH titration in aqueous medium (pKa determination); type: physicochemical; details: for pKa: aqueous 0.15 M KCl solution, UV/pH titration in aqueous medium, I = 0.15 M KCl; for predominant protonated macrospecies: calculated from pKa values at 37 °C
Method: The pKa values of telmisartan were determined by UV-pH titration using the D-PAS™ ultra-violet spectrophotometer attached to a GLpKa instrument (Sirius Analytical Instruments Ltd., Forest Row, UK). First, a stock solution of TEL was prepared in methanol (2 mg/mL). […] Spectra were registered in the 200–700 nm region. The pKa values were calculated by RefinementPro^TM software (Sirius Analytical Instruments Ltd., Forest Row, UK).

[2] = UV/pH titration in MeOH-water mixtures with Yasuda–Shedlovsky extrapolation; type: physicochemical; details: methanol-water mixtures, UV/pH titration in MeOH-water mixture, 25 °C, aqueous value by Yasuda–Shedlovsky extrapolation
Method: The cosolvent dissociation constants (psKa values) were determined in various MeOH-water mixtures between 8–34% (w/w) under the same experimental conditions as in aqueous medium. The aqueous pKa values were calculated from the measured psKa values in methanol-water solutions using the Yasuda–Shedlovsky extrapolation method. The Yasuda–Shedlovsky procedure is based on the linear relation between psKa and the dielectric constant (ε) of the cosolvent mixture:(1) psKa+log[H2O]=a/ε+b where ε is the dielectric constant, and log[H2O] is the molar water concentration of the given methanol-water mixture.

[3] = Thermodynamic (equilibrium) solubility, saturation shake-flask, in distilled water; type: physicochemical
Method: The methods for thermodynamic solubility measurements can be found in Baka et al. (measured amount of TEL: 1 mg/mL, 37 °C, 6 h strirring, 18 h sedimentation). During the thermodynamic solubility measurements in Prisma buffers the concentration of the API was determined without filtering the solutions by the Rainbow Dynamic Dissolution Monitor instrument (Pion Inc., Billerica, MA, USA). In the case of solubility measurements in distilled water, the concentration of the API after filtration with PVDF membrane (0.22 µm) was determined by Jasco V-550 UV–vis spectrophotometer (Jasco Inc., Easton, MD, USA).

[4] = Kinetic solubility measurement (µDISS profiler); type: physicochemical
Method: The kinetic solubility measurements of TEL were determined using µDISS™ profiler (Pion Inc., Billerica, MA, USA). The method was described earlier by Kadar et al..

[5] = XRD characterization of solid phase isolated from solubility suspension; type: physicochemical; details: solid phase from solubility measurement, Prisma HT buffer
Method: X-ray powder diffraction (XRD) measurements were performed by X’pert Pro MPD X-ray diffractometer (PANalytical B.v., Armelo, The Netherlands).

[6] = Analysis of solubility-pH data with pDISOL-X; type: physicochemical; details: from thermodynamic solubility-pH data in distilled water
Description: For the analysis of solubility-pH profile, the pDISOL-X^TM program (in-ADME Research, NY, USA) was used. The mathematical approach used in the program for log S-pH simulation-refinement has been described by Völgyi et al.. The program has been applied in several other recent studies.

[7] = ESI mass spectrometry of saturated solutions (aggregation); type: physicochemical; details: buffer-free saturated solution
Method: An ESI- triple quadrupole-MS/MS instrument (4000 Q TRAP) from Applied Biosystems (Foster City, CA, USA) was used for the MS and MS/MS measurements. Compounds were analyzed in the positive mode, and the settings were ion spray voltage 4500 V, ion source gas (N2) 16 arbitrary units (a.u.), curtain gas (N2) 10 a.u., declustering potential 20 V, and entrance potential 10 V. For MS/MS experiments, the settings were collision gas (N2) medium, and collision energy 51 V. Saturated samples were infused at a rate of 6 μL/min using Harvard Apparatus Syringe pump (Holliston, MA, USA). Analyst 1.4.2. software from Applied Biosystems (Foster City, CA, USA) was used for data acquisition and processing.

[8] = between pH 3–8; cited from earlier work

pKa ([1]; 25 °C, read-out: pKa1 ± SD (Carboxyl Group)): 3.03 ± 0.04
pKa ([1]; 25 °C, read-out: pKa2 ± SD (Middle Benzimidazole Ring)): 4.22 ± 0.09
pKa ([1]; 25 °C, read-out: pKa3 ± SD (Terminal Benzimidazole Ring)): 6.08 ± 0.07
pKa ([1]; 37 °C, read-out: pKa1 ± SD (Carboxyl Group)): 3.04 ± 0.03
pKa ([1]; 37 °C, read-out: pKa2 ± SD (Middle Benzimidazole Ring)): 4.08 ± 0.02
pKa ([1]; 37 °C, read-out: pKa3 ± SD (Terminal Benzimidazole Ring)): 5.91 ± 0.05
predominant protonated macrospecies ([1]; gastric pH (pH 1–2)): dication (XH3^2+)
predominant protonated macrospecies ([1]; pH of plasma (pH 7.4)): anionic (X^−)
pKa ([2]; read-out: pKa1 ± SD (Carboxyl Group)): 3.03 ± 0.06
pKa ([2]; read-out: pKa2 ± SD (Middle Benzimidazole Ring)): 4.19 ± 0.07
pKa ([2]; read-out: pKa3 ± SD (Terminal Benzimidazole Ring)): 6.14 ± 0.1
solubility thermodynamic at 6 h ([3]; pH 2.66, 37 °C, read-out: Equilibrium solubility S ± SD): 10.8 ± 0.53 µg/mL
solubility thermodynamic at 6 h ([3]; pH 2.66, 37 °C, read-out: Equilibrium solubility logS ± SD (converted)): 20.9 µM
solubility thermodynamic at 6 h ([3]; thermodynamic from solid, pH 2.16, 37 °C, read-out: Equilibrium solubility S ± SD): 148 ± 5.48 µg/mL
solubility thermodynamic at 6 h ([3]; thermodynamic from solid, pH 2.16, 37 °C, read-out: Equilibrium solubility logS ± SD (converted)): 288 µM
solubility thermodynamic at 6 h ([3]; thermodynamic from solid, pH 3.08, 37 °C, read-out: Equilibrium solubility S ± SD): 3.4 ± 0.49 µg/mL
solubility thermodynamic at 6 h ([3]; thermodynamic from solid, pH 3.08, 37 °C, read-out: Equilibrium solubility logS ± SD (converted)): 6.61 µM
solubility thermodynamic at 6 h ([3]; thermodynamic from solid, pH 3.98, 37 °C, read-out: Equilibrium solubility S ± SD): 0.36 ± 0.12 µg/mL
solubility thermodynamic at 6 h ([3]; thermodynamic from solid, pH 3.98, 37 °C, read-out: Equilibrium solubility logS ± SD (converted)): 0.692 µM
solubility thermodynamic at 6 h ([3]; thermodynamic from solid, pH 7.22, 37 °C, read-out: Equilibrium solubility S ± SD): 3.65 ± 0.11 µg/mL
solubility thermodynamic at 6 h ([3]; thermodynamic from solid, pH 7.22, 37 °C, read-out: Equilibrium solubility logS ± SD (converted)): 7.08 µM
solubility thermodynamic at 6 h ([3]; thermodynamic from solid, pH 7.4, 37 °C, read-out: Equilibrium solubility S ± SD): 13.8 ± 2.81 µg/mL
solubility thermodynamic at 6 h ([3]; thermodynamic from solid, pH 7.4, 37 °C, read-out: Equilibrium solubility logS ± SD (converted)): 26.9 µM
pH range of minimal kinetic solubility ([4]; Prisma HT buffer, 37 °C): 3–6
pH range in which a supersaturated solution is formed ([4]; based on kinetic solubility results): 3–8
difference between thermodynamic and kinetic solubility ([4]; more acidic pHs (below pH 3)): no significant difference
difference between thermodynamic and kinetic solubility ([4]; pH = 3 to pH = 8): near two-magnitude difference
XRD Characterization ([5]; pH 1.60): Crystalline
XRD Characterization ([5]; pH 2.15): Crystalline
XRD Characterization ([5]; pH 2.50): Crystalline
XRD Characterization ([5]; pH 3.08): Crystalline
XRD Characterization ([5]; pH 3.82): Crystalline
XRD Characterization ([5]; pH 6.50): Crystalline
XRD Characterization ([5]; pH 7.88): Crystalline
XRD Characterization ([5]; pH 9.40): amorphous background
XRD Characterization ([5]; pH 9.79): amorphous background
XRD Characterization ([5]; pH 11.74): Amorphous
dimerization constant logK21 [6]: 6.48 ± 0.19
dimerization constant logK22 [6]: 6.35 ± 0.47
solubility ([6]; thermodynamic from solid, read-out: calculated intrinsic solubility logS0 (converted)): 0.302 µM (≈ 0.155 µg/mL)
dimerization in solution by MS ([7]; higher pHs (e.g., pH 10)): no dimerization could be observed
Structure (SMILES): CCCc1nc2c(C)cc(-c3nc4ccccc4n3C)cc2n1Cc1ccc(-c2ccccc2C(=O)O)cc1 [Telmisartan, telmisartan]
predominant protonated macrospecies ([1]; intestinal pH (pH 5–6.5)): monoprotonated (XH) and the unprotonated anionic (X^−)
dimerization in solution by MS ([7]; pH range 3–8): peak corresponding to the dimeric structure could be detected
solubility [8]: low solubility
